Literature values, collected in patent publication US5972375A, “Polyvinyl alcohol compositions prepared by crosslinking in a freezing step” (Implico BV, priority 1992, dated 1999).
Read-outs that look alike come from different tables or passages of the source.

Experiments:
Rat [1] = test system: Rat
Rat [2] = test system: Rat; remark: listed apart in the source

CC(C)=O [Acetone]
Oral absorption LD50 (Rat [1]; oral): 9800 mg/kg

CN(C)C=O [DMS, Dimethylformamide]
Oral absorption LD50 (Rat [1]; oral): 2800 mg/kg

C[S+](C)[O-] [DMSO, dimethyl sulphoxide]
Intravenous route LD50 (Primate; intravenous): 4 g/kg of Body weight | Oral route LD50 (Primate; oral): > 4 g/kg of Body weight | Percutaneous route LD50 (Primate; percutaneous): > 11 g/kg of Body weight | Intravenous route LD50 (Dog; intravenous): 2.5 g/kg of Body weight | Oral route LD50 (Dog; oral): > 10 g/kg of Body weight | Percutaneous route LD50 (Dog; percutaneous): > 11 g/kg of Body weight | Inhalation, non-lethal at (Rat [2]; 24 hr): 2900 mg/m^3 | Inhalation, non-lethal at (Rat [2]; 40 hr): 2000 mg/m^3 | Intravenous route LD50 (Rat [2]; intravenous): 5.4 g/kg of Body weight | Percutaneous route LD50 (Rat [2]; percutaneous (undiluted)): 40 g/kg of Body weight | Percutaneous route LD50 (Mouse): 50 g/kg of Body weight | Oral absorption LD50 (Rat [1]; oral): 19700 mg/kg

CCO [Ethanol]
Oral absorption LD50 (Rat [1]; in vivo, po): 7100 mg/kg

OCC(O)CO [Glycerol]
Oral absorption LD50 (Rat [1]; in vivo, po): 12600 mg/kg

CN1CCCC1=O [N-Methylpyrrolidone]
Oral absorption LD50 (Rat [1]; oral): 4200 mg/kg
